The values that follow come from patent publication US20070049518A1, “Novel method of treatment of inflammatory skin conditions” (priority 2005, published 2007).

Test [1] relates to S. aureus 8325-4. Briefly: S. aureus growth by turbidometry in micro-titre plates. Particulars: for inhibition at 100 µM: Staphylococcus aureus, 83254, growth inhibition, overnight, absorbance 620 nm, read-out: Inhibition at 0.1 mM. Format: cell-based, Staphylococcus aureus. Here is the method:
Tryptic soy broth (0.18 ml) containing S. aureus 8325-4 (approximately 10^5 cells) was mixed with 20 μl 20% (v/v) DMSO vehicle±compound in the wells of a flat-bottomed clear polystyrene 96-well micro-titre plate. The plate was incubated overnight at 37° C./220 rpm and the absorbance measured at 620 nm the following day.

For test [2], the target named is T1, metalloprotease (aureolysin) activity in Staphylococcus aureus 8325-4 culture supernatants (Staphylococcus aureus, UniProt P81177).
T1 construct: 4 μl S. aureus culture supernatant; endogenous in cells; host or cells: Staphylococcus aureus 8325-4 (culture supernatant)
Description: Metalloprotease activity in S. aureus culture supernatants. It counts as biochemical. As to the method: The culture was then centrifuged to remove the cells and the supernatant stored at −70° C. for subsequent use. […] Activity was expressed as the rate of increase in fluorescence as a function of time.

The target in test [3] is T2, human MMP-1 (Homo sapiens, UniProt P03956).
T2 construct: purchased Calbiochem
T2 sequence (P03956 100-469): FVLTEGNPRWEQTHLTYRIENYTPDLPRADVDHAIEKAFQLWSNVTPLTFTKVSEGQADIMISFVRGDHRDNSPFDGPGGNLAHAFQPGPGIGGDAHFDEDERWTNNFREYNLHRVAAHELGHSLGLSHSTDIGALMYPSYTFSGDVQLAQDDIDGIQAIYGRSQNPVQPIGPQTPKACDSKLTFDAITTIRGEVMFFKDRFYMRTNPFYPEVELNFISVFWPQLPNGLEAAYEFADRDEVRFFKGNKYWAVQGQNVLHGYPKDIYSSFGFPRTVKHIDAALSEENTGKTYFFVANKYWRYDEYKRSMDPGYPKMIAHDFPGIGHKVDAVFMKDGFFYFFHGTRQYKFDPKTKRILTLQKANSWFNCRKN
Description: MMP enzyme inhibition assay, MMP-1. Format: biochemical. To be noted: pH 7.5, 37° C., 1 hour.

In test [4] the test system is S. aureus 8325-4. Description: S. aureus viability, viable cell counts. Format: cell-based, Staphylococcus aureus. To be noted: 50 μM compound; 16 h at 37° C. As to the method:
Brain heart infusion medium (5 ml; Becton Dickinson and Co.) containing 10% skimmed milk and 1% (v/v) DMSO vehicle ±50 μM compound was inoculated with S. aureus 8325-4 (approximately 10^7 cells in tryptic soy broth) and incubated for 16 h at 37° C./220 rpm. Duplicate samples (0.1 ml) were then removed from each culture, diluted into PBS, spread onto brain heart infusion agar (1.5%) and incubated at 37° C.

The target of test [5] is T3, staphopain B (Staphylococcus aureus, UniProt P0C1S6).
T3 construct: purchased BioCentrum Ltd
Description: Selectivity profile, staphopain B. It counts as biochemical. Particulars: read-out: inhibition at 0.1 mM, Staphopain B. Here is the method:
(§1) Inhibitory activity was tested in reaction mixtures (0.1 ml) containing 2% (v/v) DMSO vehicle±compound plus additions as follows. V8 protease: 90 mM MOPS (sodium) buffer pH 7.0, […] calcium chloride, 0.045% Brij 35, 10 μM Mca-Leu-Glu-Val-Asp-Gly-Trp-Lys(Dnp)-amide (Bachem) and V8 (BioCentrum Ltd; 30 ng). Staphopain A and B: 90 mM MOPS (sodium) buffer pH 7.0, 1.8 mM cysteine-HCl (pH-adjusted with NaOH), 0.045% Brij 35, 0.1 mM Z-Phe-Arg-AMC hydrochloride (Bachem) and staphopain A or B (BioCentrum Ltd; 30 ng). Human kallikrein 5: 0.1M sodium phosphate buffer pH 8.0, 0.045% Brij 35, 0.1 mM Boc-Val-Pro-Arg-AMC (Sigma) and recombinant human kallikrein 5 (R&D Systems Inc; 6 ng). Human kallikrein 7: 72 mM Tris-HCl pH 8.0, 0.033% Brij 35, 1.2 mM S-2586 (Chromogenix Instrumentation Laboratory SpA) and recombinant human kallikrein 7 (R&D Systems Inc; 0.6 μg) that had been thermolysin-activated according to the manufacturer's instructions. Human angiotensin-converting enzyme (ACE): 45 mM MES (sodium) buffer pH 6.5, 0.045% Brij 35, 10 μM Mca-[…]Dnp)-OH(R&D Systems Inc) and recombinant human ACE (R&D Systems Inc; 1.3 ng). Human cathepsin D: 0.1M sodium acetate buffer pH 3.5, 0.2M sodium chloride, 0.045% Brij 35, 10 μM Mca-Pro-Leu-Gly-Leu-Dap(Dnp)-Ala-Arg-amide (Bachem) and recombinant human cathepsin D (R&D Systems Inc; 8 ng) activated according to the manufacturer's instructions. […]

For test [6], the target named is T4, recombinant human ADAM17 (Homo sapiens, UniProt P78536).
T4 construct: purchased R&D Systems Inc
Description: Selectivity profile, ADAM17. Format: biochemical.

The target of test [7] is T5, staphopain A (Staphylococcus aureus, UniProt P81297).
T5 construct: purchased BioCentrum Ltd
Briefly: Selectivity profile, staphopain A. It counts as biochemical. Particulars: read-out: inhibition at 0.1 mM, Staphopain A. As to the method:
as §1

The target in test [8] is T6, human MMP-9 (Homo sapiens, UniProt P14780).
T6 construct: purchased Calbiochem
Briefly: MMP enzyme inhibition assay, MMP-9. It counts as biochemical. Particulars: pH 7.5, 37° C., 1 hour.

For test [9], the target named is T7, human MMP-8 (Homo sapiens, UniProt P22894).
T7 construct: purchased Calbiochem
Briefly: MMP enzyme inhibition assay, MMP-8. Format: biochemical. To be noted: pH 7.5, 37° C., 1 hour.

Test [10] has as its target T8, V8 protease (Staphylococcus aureus, UniProt P0C1U8).
T8 construct: purchased BioCentrum Ltd
Briefly: Selectivity profile, V8 protease. It counts as biochemical. Particulars: read-out: inhibition at 0.1 mM, V8 protease. Here is the method: as §1

The structures appear in SMILES notation.

As a reminder, the inhibition is the drop in the measured response relative to a control, in per cent. As a reminder, the IC50 is the concentration needed to halve the response being measured.

T8 sequence (P0C1U8 69-336): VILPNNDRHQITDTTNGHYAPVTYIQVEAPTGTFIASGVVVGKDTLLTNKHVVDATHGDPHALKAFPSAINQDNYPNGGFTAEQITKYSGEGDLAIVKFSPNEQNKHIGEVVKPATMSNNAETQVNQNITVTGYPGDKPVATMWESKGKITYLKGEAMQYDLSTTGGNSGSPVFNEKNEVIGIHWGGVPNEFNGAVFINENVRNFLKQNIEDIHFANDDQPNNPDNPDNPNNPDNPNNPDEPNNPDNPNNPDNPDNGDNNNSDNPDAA
T4 sequence (P78536 215-824): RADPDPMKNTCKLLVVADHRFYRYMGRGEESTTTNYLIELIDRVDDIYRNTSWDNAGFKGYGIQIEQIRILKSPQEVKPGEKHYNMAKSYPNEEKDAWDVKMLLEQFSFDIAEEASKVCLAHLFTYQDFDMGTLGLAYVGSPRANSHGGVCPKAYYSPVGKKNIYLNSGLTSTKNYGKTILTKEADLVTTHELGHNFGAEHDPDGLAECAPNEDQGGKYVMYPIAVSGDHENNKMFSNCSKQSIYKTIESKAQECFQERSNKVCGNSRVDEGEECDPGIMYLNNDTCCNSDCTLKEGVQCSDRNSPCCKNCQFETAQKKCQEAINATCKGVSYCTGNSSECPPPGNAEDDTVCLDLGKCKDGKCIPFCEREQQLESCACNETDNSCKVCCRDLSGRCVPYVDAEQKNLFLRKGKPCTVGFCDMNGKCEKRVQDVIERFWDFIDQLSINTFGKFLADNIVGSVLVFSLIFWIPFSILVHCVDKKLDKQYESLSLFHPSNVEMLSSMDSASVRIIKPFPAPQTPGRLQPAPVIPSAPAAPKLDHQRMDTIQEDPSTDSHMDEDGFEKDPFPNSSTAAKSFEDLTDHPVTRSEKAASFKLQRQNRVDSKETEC
T1 sequence (P81177 209-509): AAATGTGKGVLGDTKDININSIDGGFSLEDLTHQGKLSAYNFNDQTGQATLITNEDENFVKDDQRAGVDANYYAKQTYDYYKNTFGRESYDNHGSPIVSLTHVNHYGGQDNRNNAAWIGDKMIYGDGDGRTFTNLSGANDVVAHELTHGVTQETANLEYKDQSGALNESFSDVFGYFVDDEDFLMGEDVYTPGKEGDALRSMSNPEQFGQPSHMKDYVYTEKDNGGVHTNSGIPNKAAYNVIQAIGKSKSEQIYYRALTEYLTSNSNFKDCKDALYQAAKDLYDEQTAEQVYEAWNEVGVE
T5 sequence (P81297 215-388): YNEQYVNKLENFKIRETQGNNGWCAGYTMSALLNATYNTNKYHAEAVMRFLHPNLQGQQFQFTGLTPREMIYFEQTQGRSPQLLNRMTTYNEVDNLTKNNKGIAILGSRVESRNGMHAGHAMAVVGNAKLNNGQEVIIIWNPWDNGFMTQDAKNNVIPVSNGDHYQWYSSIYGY
T3 sequence (P0C1S6 220-393): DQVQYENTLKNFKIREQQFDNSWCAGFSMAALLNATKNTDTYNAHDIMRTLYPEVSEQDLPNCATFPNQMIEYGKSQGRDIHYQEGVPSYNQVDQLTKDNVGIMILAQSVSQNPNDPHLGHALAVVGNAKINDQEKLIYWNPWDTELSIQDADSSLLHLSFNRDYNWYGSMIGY
T6 sequence (P14780 94-707): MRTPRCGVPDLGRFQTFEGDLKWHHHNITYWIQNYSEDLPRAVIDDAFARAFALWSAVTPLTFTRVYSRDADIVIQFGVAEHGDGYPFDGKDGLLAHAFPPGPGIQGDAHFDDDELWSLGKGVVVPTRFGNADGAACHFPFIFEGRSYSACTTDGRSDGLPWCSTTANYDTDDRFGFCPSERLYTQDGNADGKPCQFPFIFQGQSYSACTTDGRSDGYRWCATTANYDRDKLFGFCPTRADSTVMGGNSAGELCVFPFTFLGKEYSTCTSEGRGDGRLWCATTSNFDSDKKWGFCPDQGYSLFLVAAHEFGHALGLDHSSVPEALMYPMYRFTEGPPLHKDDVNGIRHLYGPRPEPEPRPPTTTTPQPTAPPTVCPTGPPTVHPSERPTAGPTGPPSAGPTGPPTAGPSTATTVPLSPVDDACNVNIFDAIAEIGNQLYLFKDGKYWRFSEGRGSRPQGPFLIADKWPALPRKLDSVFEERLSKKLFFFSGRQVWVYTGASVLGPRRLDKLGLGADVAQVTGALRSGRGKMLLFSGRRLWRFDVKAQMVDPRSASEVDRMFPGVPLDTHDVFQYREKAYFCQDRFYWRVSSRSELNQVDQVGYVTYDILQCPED
T7 sequence (P22894 101-467): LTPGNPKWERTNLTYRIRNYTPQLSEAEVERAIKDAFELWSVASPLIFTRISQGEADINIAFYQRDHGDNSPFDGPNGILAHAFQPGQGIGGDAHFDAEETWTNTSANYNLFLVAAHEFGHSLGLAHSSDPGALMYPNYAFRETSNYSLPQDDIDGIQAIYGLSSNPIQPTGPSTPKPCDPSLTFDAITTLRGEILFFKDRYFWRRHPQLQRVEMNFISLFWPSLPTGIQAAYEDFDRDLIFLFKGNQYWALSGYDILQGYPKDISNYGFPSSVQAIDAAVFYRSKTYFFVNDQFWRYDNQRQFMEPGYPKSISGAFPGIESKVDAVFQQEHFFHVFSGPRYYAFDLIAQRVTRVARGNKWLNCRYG

Regarding `CNC(=O)[C@@H](NC(=O)[C@H](CC(=O)NO)CC(C)C)C(C)(C)C` [Compound 12, (S)—N1-((S)-3,3-dimethyl-1-(methylamino)-1-oxobutan-2-yl)-N4-hydroxy-2-isobutylsuccinamide], the inhibition at 100 µM in test [1] was found to be 0%; in test [5] it was 10%; in test [7], 0%; in test [10], 0%. Besides, the IC50 in [2] was 4.3 µM; in test [3], 2300 nM; in test [6], 79 µM; in test [8], 4600 nM; in test [9] it was 1400 nM. The “Viable cell counts, Cells/ml” value in [4] was 1.3 × 10^9 Cells/ml.
Regarding `CNC(=O)[C@@H](NC(=O)[C@@H](CC(=O)NO)CC(C)C)C(C)(C)C` [Compound 11, (R)—N1-((S)-3,3-dimethyl-1-(methylamino)-1-oxobutan-2-yl)-N4-hydroxy-2-isobutylsuccinamide], the inhibition at 100 µM in test [1] was found to be 2%; in test [5], 11%; in test [7], 5%; in [10], 0%. In addition, the “anti-bacterial activity (in words)” value in test [1] (data in Tables 10 and 11) was “not anti-bacterial”. In addition, the IC50 in [2] is 3.7 µM; in [3] it was 2.8 nM; in test [6], 0.025 µM; in [8], 3.6 nM; in test [9], 1.4 nM. Moreover, the “Viable cell counts, Cells/ml” value in [4] is reported as 1.6 × 10^9 Cells/ml.
